The subject of the assay is patients with first or second degree lateral ankle sprain. Nature of the assay: Efficacy of HA on ankle sprain following periarticular administration (clinical study 1: HA; study 2: celecoxib or naproxen). Type of assay: in vivo, human. As to conditions: for Percentage increase in Patient's Global Assessment (improved by one or more grades) / Mean Patient's Satisfaction Assessment (10 point scale) / Mean Physician's Satisfaction Assessment (10 point scale): study 2, oral BID for 7 days; for Mean VAS Weight-bearing (100 mm): study 2, oral BID for 7 days (celecoxib 200 mg, naproxen 500 mg). Here is the method: The study was conducted in accordance with good clinical practice and in compliance with the requirement of the International Conference on Harmonization and Declaration of Helsinki. On Day 1 (within 48 hours of the injury), the patients were examined to assess whether they meet all the inclusion criteria and none of the exclusion criteria after signing the informed consent. The inclusion criteria were: 18 years and older, first or second degree lateral ankle […] within 48 hours of administration of study drug, reported moderate (45-60 mm) to severe (>60 mm) ankle pain on full weight bearing on the Patient's Assessment of Ankle Pain using a 100 mm Visual Analogue Scale (VAS). This scale was available for the duration of the clinical follow-up. Patients with bilateral ankle […] injury, third-degree […], or previous ankle […] within 6 months were excluded. Also excluded were patients who had recently used anti-inflammatory drugs, muscle relaxants, or certain classes of psychotropic medications that could confound the results. In addition, patients with sensitivity or allergy to NSAIDs or sulfonamides as well as patients with a history of serious GI, renal, or hepatic disease were excluded. Patients with other rheumatic diseases or a history of drug or alcohol abuse were also excluded. After enrollment, patients received periarticular injections of HA (study 1) or an inhibitor of cyclooxygenase-2 or a NSAID (study 2). […] Eight to ten mg of HA (0.8-1.0 ml of HA) was injected, without anesthetic (study 1). Oral treatments with an inhibitor of cyclooxygenase-2, celecoxib 200 mg BID, or with a NSAID, naproxen 500 mg BID, were done for 7 days (study 2). Clinical assessments were performed at baseline, and then before treatment on Day 4 and Day 8 (end of study). […] In Table 1, 7 patients received HA. In Table 2, 199 patients received celecoxib and 198 patients received naproxen.

The structures appear in SMILES notation.

On to `Cc1ccc(-c2cc(C(F)(F)F)nn2-c2ccc(S(N)(=O)=O)cc2)cc1` [Celecoxib, celecoxib], for which, where the note is “at day 4”, the “Percentage increase in Patient's Global Assessment (improved by one or more grades)” value (from here on “Percentage increase”) is given as 71% and the “Mean VAS Weight-bearing (100 mm)” value turned out to be 31.9 mm. For the same compound, for the setting “at day 8”, the “Mean Patient's Satisfaction Assessment (10 point scale)” value is recorded as 8.8, the “Mean Physician's Satisfaction Assessment (10 point scale)” value was found to be 8.7, the “Percentage increase” value turned out to be 89% and the “Mean VAS Weight-bearing (100 mm)” value is 15.0 mm.

For the compound `COc1ccc2cc([C@H](C)C(=O)O)ccc2c1` [Naproxen, naproxen], under “at day 4”, the “Percentage increase” value was 72% and the “Mean VAS Weight-bearing (100 mm)” value turned out to be 29.0 mm. Where the note is “at day 8”, the “Mean Patient's Satisfaction Assessment (10 point scale)” value is 8.7, the “Mean Physician's Satisfaction Assessment (10 point scale)” value turned out to be 8.6, the “Percentage increase” value stood at 90% and the “Mean VAS Weight-bearing (100 mm)” value is given as 15.3 mm.
